Legend:
Format in all cases: cell-based
[1] = tested on: recombinant Escherichia coli KO11; assay: Batch fermentation of E. coli KO11 in 1% CSL medium and glucose with nutrient additives: ethanol production and cell growth; details: additive 2 g/L unless indicated; for activity at 2000 µg/mL: Escherichia coli
Protocol: (§1) Two types of media were tested: 1% CSL and Luria broth (LB). Each contained 97 g of either xylose or glucose per liter. Luria Broth consists of, per liter: 10 g Difco® Tryptone, 5 g Difco® Yeast Extract and 5 g NaCl. The 1% CSL medium consists of Corn Steep Liquor (1% w/v) plus mineral salts (mineral salts per liter: 1 g of KH2PO4. 0.5 g of K2HPO4, 3.1 g of (NH4)2SO4, 0.4 g of MgCl2·6H2), and 20 mg FeCl3·6H2O).
(§2) Luria Broth was prepared by autoclaving a 2× nutrient stock containing, per liter: 20 g Difco® Tryptone, 10 g Difo® Yeast Extract, and 10 g NaCl. Sugars (xylose or glucose) were autoclaved separately. A 1% CSL medium was prepared as follows: Commercial Corn Steep Liquor (CSL; 50% dry weight/50% water) was diluted with tap water to make a 20X stock containing 100 g dry weight of Corn Steep Liquor/L and was adjusted to pH 7.2 with NaOH (50%). After sterilization by autoclaving, the 20X CSL stock was clarified by centrifugation at 5000×g for 10 minutes. Magnesium was added as a 100× stock solution (40 g/L MgCl2·6H2O). Iron was added as a 1000× stock solution made by dissolving 20 g FeCl3·6H2O in 175 mL of HCl and adjusting to 1 L with sterile water. Nitrogen, sulfur and phosphorus were added using a 20× stock solution containing the following (per liter): 20 g of KH2PO4, 10 g of K2HPO4 and 62 g of (NH4)2SO4. Stock solutions containing minerals were sterilized separately by autoclaving. Final media was prepared by adding 750 mL of water to 1 L bottle containing 100 g of xylose or glucose.
(§3) Inocula were grown in same media used for fermentation and were prepared as follows. Three colonies from a fresh plate were used to inoculate seed cultures: 250-mL flask containing 100 mL medium. These cultures were grown with agitation (120 rpm) for 12-16 hours at 35° C. to a final OD550nm of approximately 2.0-2.5. Cells were harvested by centrifugation at 5000×g for 5 minutes, and resuspended in fresh media to an OD550nm of 0.1. The resulting suspension was distributed into 500-mL beakers containing 345 ml each of fermentation medium. Acetaldehyde was added as indicated. Batch fermentations (35° C., 100 rpm) were maintained at pH 6.5 by the automatic addition of 2N KOH. Cell mass, ethanol, and base addition (2N KOH) were recorded during 96 hours of incubation.
(§4) Equivalent amounts of distilled water were added instead of the acetaldehyde in control experiments.
(§5) Additives (e.g., as listed in Table 1) were dissolved in 5 mL di-H2O. Solutions with pH lower than 5 were neutralized to pH 6.5 with 2N KOH. Nutritional supplements were then filter-sterilized (0.45 μm filter disk) directly into the fermentation vessel containing the culture. The final concentration of all additives in the culture medium was 2 g/L unless otherwise indicated.
(§6) Cell mass was estimated by measuring OD550nm using Baush & Lomb® Spectronic 70 spectrophotometer. […] Ethanol was measured by gas chromatography using a Varian® 3400 CX gas chromatograph with 1-propanol as an internal standard.
(§7) Tables 1, 3, and 5 show time to completion of fermentation, ethanol production, and volumetric productivity of the fermentation for all concentrations of the compound and the control. Maximum ethanol production is shown in grams/liter (g/L). The ethanol yield is shown in grams of ethanol/grams of added sugar. Maximum volumetric productivity is shown in grams ethanol/(liter)(hour). The average productivity is calculated form the start of fermentation to the completion of fermentation is grams ethanol/(liter)hour).
(§8) Tables 2, 4, and 6 show the initial growth of the cells (OD taken after the first 24 hours of fermentation) and the maximum cell density (the time which culture reaches the maximum OD value).
(§9) Acetaldehyde was added to the fermentation medium at five different concentrations and time points. […] Where two additions are indicated, the first volume was added at the start of fermentation and the second was added after 8 hours of fermentation.

[2] = tested on: recombinant Escherichia coli KO11; assay: Batch fermentation of E. coli KO11 in 1% CSL medium and xylose with nutrient additives: ethanol production and cell growth; details: additive 2 g/L unless indicated; for activity at 2000 µg/mL: Escherichia coli
Protocol: as §1, §2
as §3, with “incubation. […]” for “incubation.”
as §5, §6, §7
Tables 2, 4, and 6 show the initial growth of the cells (OD taken after the first 24 hours of fermentation) and the maximum cell density (the time which culture reaches the maximum OD value). […]

[3] = tested on: recombinant Escherichia coli KO11; assay: Batch fermentation of E. coli KO11 in Luria broth and xylose with nutrient additives: ethanol production and cell growth; details: LB+xylose
Protocol: as §1, §2, §3, §4, §5, §6, §7, §8, §9

[4] = additive 2 g/L unless indicated

## CC(=O)C(=O)O [Pyruvate, pyruvate]
[1]; 1% CSL+glucose
  Ethanol Production Maximum: 42.35 g/L
  Ethanol yield: 0.436 grams of ethanol/grams of added sugar
  Initial Growth (OD @ 24 h) OD: 3.46 OD
  Maximum Cell Density OD: 3.83 OD
  Volumetric Productivity Average: 0.441 grams ethanol/(liter)(hour)
  Volumetric Productivity Maximum: 0.663 grams ethanol/(liter)(hour)
[1]; 24 h, 1% CSL+glucose, read-out: Initial Growth (OD @ 24 h) % Control
  activity at 2000 µg/mL: 129%
[1]; read-out: Ethanol Production Maximum % Control, 1% CSL+glucose
  activity at 2000 µg/mL: 114%
[1]; read-out: Volumetric Productivity Average % Control, 1% CSL+glucose
  activity at 2000 µg/mL: 114%
[1]; read-out: Volumetric Productivity Maximum % Control, 1% CSL+glucose
  activity at 2000 µg/mL: 129%
[1]; 1% CSL+glucose, read-out: Maximum Cell Density % Control
  activity at 2000 µg/mL: 142%
[2]; 1% CSL+xylose
  Ethanol Production Maximum: 44.42 g/L
  Ethanol yield: 0.457 grams of ethanol/grams of added sugar
  Initial Growth (OD @ 24 h) OD: 4.11 OD
  Maximum Cell Density Time: 96 h
  Volumetric Productivity Average: 0.617 grams ethanol/(liter)(hour)
  Volumetric Productivity Maximum: 0.792 grams ethanol/(liter)(hour)
[2]; 24 h, 1% CSL+xylose, read-out: Initial Growth (OD @ 24 h) % Control
  activity at 2000 µg/mL: 201%
[2]; read-out: Ethanol Production Maximum % Control, 1% CSL+xylose
  activity at 2000 µg/mL: 148%
[2]; read-out: Volumetric Productivity Average % Control, 1% CSL+xylose
  activity at 2000 µg/mL: 197%
[2]; read-out: Volumetric Productivity Maximum % Control, 1% CSL+xylose
  activity at 2000 µg/mL: 215%
[2]; 1% CSL+xylose, read-out: Maximum Cell Density % Control
  activity at 2000 µg/mL: 238%
[3]; 2 g
  Ethanol Production Maximum: 44.35 g/L
  Ethanol Production Maximum % Control: 102.96%
  Ethanol yield: 0.457 grams of ethanol/grams of added sugar
  Initial Growth (OD at 24 h) % Control: 113.09%
  Initial Growth (OD at 24 h) OD: 11.30 OD
  Maximum Cell Density % Control: 102.29%
  Maximum Cell Density OD: 11.30 OD
  Maximum Cell Density Time: 24 h
  Time to completion: 48 h
  Volumetric Productivity Average: 0.924 grams ethanol/(liter)(hour)
  Volumetric Productivity Average % Control: 102.96%
  Volumetric Productivity Maximum: 1.284 grams ethanol/(liter)(hour)
  Volumetric Productivity Maximum % Control: 111.47%
[3]; 4 g
  Ethanol Production Maximum: 45.13 g/L
  Ethanol Production Maximum % Control: 104.76%
  Ethanol yield: 0.465 grams of ethanol/grams of added sugar
  Initial Growth (OD at 24 h) % Control: 114.64%
  Initial Growth (OD at 24 h) OD: 11.45 OD
  Maximum Cell Density % Control: 105.48%
  Maximum Cell Density OD: 11.65 OD
  Maximum Cell Density Time: 48 h
  Time to completion: 48 h
  Volumetric Productivity Average: 0.940 grams ethanol/(liter)(hour)
  Volumetric Productivity Average % Control: 104.76%
  Volumetric Productivity Maximum: 1.166 grams ethanol/(liter)(hour)
  Volumetric Productivity Maximum % Control: 101.27%

## O=C(O)CCC(=O)C(=O)O [a-KG, α-ketoglutarate]
[1]; 1% CSL+glucose
  Ethanol Production Maximum: 40.33 g/L
  Ethanol Production Maximum % Control: 109.03%
  Ethanol yield: 0.415 grams of ethanol/grams of added sugar
  Initial Growth (OD @ 24 h) % Control: 123.05%
  Initial Growth (OD @ 24 h) OD: 3.29 OD
  Time to completion: 72 h
[2]; 1% CSL+xylose
  Ethanol Production Maximum: 42.32 g/L
  Ethanol Production Maximum % Control: 140.70%
  Ethanol yield: 0.436 grams of ethanol/grams of added sugar
  Initial Growth (OD @ 24 h) % Control: 173.77%
  Initial Growth (OD @ 24 h) OD: 3.55 OD
  Time to completion: 72 h
[3]; [4]
  Ethanol Production Maximum: 42.47 g/L
  Ethanol yield: 0.437 grams of ethanol/grams of added sugar
  Initial Growth (OD at 24 h) % Control: 102.79%
  Initial Growth (OD at 24 h) OD: 10.27 OD
  Time to completion: 48 h
